Assay: gradient 5% acetonitrile 3 min, to 50% in 2 min, to 85% in 15 min, held 3 min, 100 µL/min
Conditions: column: Zorbax Extend-C18 2.1 x 50 mm; eluents: water / acetonitrile, 0.1% formic acid
Method in brief: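 In both positive and negative ionization mode, a quadrupole time-of-flight mass spectrometer coupled to HPLC analyzed pure standards run in mixtures of ~100 molecules. The Zorbax Extend-C18 column (2.1 × 50 mm, 1.8 μm) was operated at 100 μL/min with water and acetonitrile, each containing 0.1% formic acid. The dead volume was 40 μL and the dwell volume 900 μL. Retention time came from adduct peaks that were computationally picked and individually inspected by hand.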

| SMILES | RP-LC retention time [s] |
| --- | --- |
| FC(F)Sc1ccc(-c2cn3cc(Cl)ccc3n2)cc1 | 841 |
| COc1cc2nc(SCC(=O)Nc3cc(C)[nH]n3)n3nc(C)nc3c2cc1OC | 605 |
| CCn1c(=O)c2ccccc2n(Cc2nc(-c3ccc(C)cc3)no2)c1=O | 1070 |
| CC(C)NC(=O)N1CCCN(Cc2cccs2)CC1 | 564 |
| CSc1ncccc1-c1nc(-c2ccc3oc(C)nc3c2)no1 | 1100 |
| Cn1nccc1C(=O)N1CCN(c2nc3c(S(C)(=O)=O)cccc3s2)CC1 | 656 |
| Cc1cc(C)cc(-c2nc(-c3ccc4c(c3)nnn4CCC(=O)N3CCCC3)no2)c1 | 1090 |
| CCN1CCCC1CN(CC(=O)N1CCNCC1)S(=O)(=O)c1ccc(C(C)C)cc1 (configuration not stated) | 604 |
| COc1ccc(S(=O)(=O)N2CCC3(CC2)CC(C)(O)CCO3)cc1OC (configuration not stated) | 612 |
| Cc1ccc(Cn2c(C)c(CNCc3ccco3)c(C(=O)O)c2C)cc1 | 666 |
| COC(=O)c1cnc2nc(C)ccc2c1Nc1ccc(F)cc1F | 674 |
| Cc1noc(C)c1-c1ccc(S(=O)(=O)Nc2ccc(Cl)cc2)cc1 | 1000 |
| O=C(c1ccsc1)N1CC(c2noc(C3CCCN3CC3CC3)n2)C1 (configuration not stated) | 590 |
| O=C(NCc1ccc2c(c1)OCO2)C(=O)NCC1CCCO1 (configuration not stated) | 639 |
| NC(=O)C1(c2cccc(C(F)(F)F)c2)CC1 | 764 |
| CCN1CCCn2nc(C3CCN(S(=O)(=O)c4cnc[nH]4)CC3)cc2C1=O | 592 |
| CC(C)c1noc(C2CCCCN2Cc2nc(-c3cccnc3)no2)n1 (configuration not stated) | 832 |
| Cc1ccc(-c2cn3ccn(-c4ccc(F)cc4)c(=O)c3n2)cc1C | 901 |
| Cc1nnsc1C(=O)Nc1ccc(-n2nc(C(F)(F)F)cc2C(F)(F)F)cc1 | 758 |
| CCc1ccc(-c2cn3cc(C(=O)N(CC)CC)ccc3n2)cc1 | 675 |
| COCc1noc([C@@H]2CN(Cc3cn(C)c4ccccc34)C[C@H]2CO)n1 | 616 |
| CCOCCCNC(=O)C1CCCN(C(=O)c2cc(C)cc(C)c2)C1 (configuration not stated) | 743 |
| COc1ccc(-c2nc(C)cc(C)c2CNC(=O)c2cccs2)cc1 | 610 |
| Cc1ccc(C)c(C2=NC3(CCN(C(C)C)CC3)NC(c3cc(Cl)ccc3O)C2)c1 (configuration not stated) | 679 |
| COc1ccc(N2CC(c3noc(-c4ccc(OC)c(F)c4)n3)CC2=O)cc1 (configuration not stated) | 856 |
| CCCN1C(=O)CCc2cc(NS(=O)(=O)c3ccc(C(F)(F)F)cc3)ccc21 | 914 |
| Cc1ccc(Nc2c(-c3ccc(C)cc3)nc3cccc(C)n23)cc1 | 782 |
| CCN1C(=O)COc2ccc(-c3noc(-c4cc(OC)c(OC)c(OC)c4)n3)cc21 | 1060 |

Other lines, results leading:

| RP-LC retention time [s] | SMILES |
| --- | --- |
| 640 | O=C(Cn1nc(Cc2cccnc2)c2ccccc2c1=O)NCC1COc2ccccc2O1 (configuration not stated) |
| 799 | Cn1nc(-c2ccccc2)c2ccccc2c1=O |
| 819 | O=C(Cn1nnc2ccccc2c1=O)NCCc1c[nH]c2ccc(Cl)cc12 |
| 880 | O=C(NCCC1=CCCCC1)C1CCN(Cc2cc3ccccc3n2Cc2ccccc2)CC1 |
| 724 | Cc1ccc2nc(-c3cccc(Cl)c3)c(Nc3ccc4c(c3)OCCO4)n2c1 |
| 908 | Cc1ccc2c(c1)N(C(=O)Cn1ccn3nc(-c4ccccc4)c(CO)c3c1=O)CCO2 |
| 810 | CC1CCCCN1C(=O)c1ccc2c(c1)Sc1ncccc1C(=O)N2C(C)C (configuration not stated) |
| 884 | CCOC(=O)C1=C(CN2CCC(Cc3ccccc3)CC2)NC(=O)NC1c1cccs1 (configuration not stated) |
| 1050 | CCC(Sc1nnc2c(n1)[nH]c1ccccc12)C(=O)Nc1nc(-c2ccccc2)cs1 (configuration not stated) |
| 717 | Cc1cc(NC(=O)C2CCCN(c3nnc4ccccn34)C2)ccc1F (configuration not stated) |
| 1100 | O=C1CC(c2noc(-c3cc(F)cc(F)c3)n2)CN1c1ccc(Cl)cc1 (configuration not stated) |
| 688 | Cc1cc(N2CCN(C(=O)Nc3ccc(C)c(Cl)c3)CC2)nc(N2CCOCC2)n1 |
| 1230 | Cc1cc(NC(=O)CCc2nc(-c3ccc(N4CCCC4)cc3)no2)ccc1Br |
| 848 | CCOC(=O)c1c(C)[nH]c(C(=O)N2CCCC(C(=O)NCc3cccc(Cl)c3)C2)c1C (configuration not stated) |
| 653 | CCc1nnc(NC(=O)CSc2nccn2-c2ccc(F)cc2)s1 |
| 631 | O=C(NC1CCCCCCC1)C1CCCN(C(=O)c2cc(-c3cccnc3)n[nH]2)C1 (configuration not stated) |
| 752 | O=C(NC1CCN(c2cc(-c3cccs3)[nH]n2)C1)c1ccc(F)c(F)c1 (configuration not stated) |
| 520 | CCCCNC(=O)CCC(=O)Nc1ccc2nc(N3CCN(C)CC3)cc(C)c2c1 |
| 595 | CCc1cc(=O)n(CC(=O)Nc2ccc(OC)cc2)c(N)n1 |
| 780 | O=C(CNC(=O)C1COc2ccccc2O1)NCCc1c[nH]c2ccccc12 (configuration not stated) |

| RP-LC retention time [s] | SMILES |
| --- | --- |
| 766 | Cc1noc(C2(NC(=O)c3ccccn3)CCCCC2)n1 |
| 917 | COC(=O)C1=C(C)NC2=C(C(=O)c3ccccc32)C1c1cccc(OC)c1 (configuration not stated) |
| 667 | O=C(NCc1ccc(F)cc1)c1cn2ccncc2n1 |
| 1160 | Cc1csc(-c2cc(S(=O)(=O)N3CCN(c4ccccc4)CC3)c(C)s2)n1 |
| 611 | COc1ccc(NC(=O)N2CCN(CCn3c(C(F)(F)F)nc4cccnc43)CC2)cc1OC |
| 812 | COCCn1cc(C(=O)Nc2cccc(C(C)=O)c2)c2nn(-c3ccccc3)c(=O)c-2c1 |
| 602 | O=C(Nc1ccccc1)NC1CCCN(c2cc(-c3ccncc3)[nH]n2)C1 (configuration not stated) |
| 790 | O=C(Cn1nc(N2CCOCC2)c2ccccc2c1=O)Nc1ccccc1F |
| 851 | Cc1ccc(CNC(=O)C2CCCN(c3ncc(-c4cccc(F)c4)cn3)C2)o1 (configuration not stated) |
| 743 | CCOc1cccc(CNC(=O)C2CCc3nc(N4CCOCC4)ncc3C2)c1 (configuration not stated) |
| 722 | Cc1ccc2c(Nc3cccc(C(C)C)c3)c(C(=O)N3CCCC(C)C3)cnc2n1 (configuration not stated) |
| 570 | Cc1ccc(Cn2cc(-c3ccncc3)cc2C(=O)NCCN(C)C)cc1 |
| 912 | Cc1ccc(NC(=O)C2CCN(S(=O)(=O)c3cc(C(=O)N(C)C)cs3)CC2)cc1Cl |
| 689 | Cn1nc(CNC(=O)c2cnccn2)c2ccccc21 |
| 977 | Fc1ccccc1-c1nc(-c2cccc(-c3ccn[nH]3)c2)no1 |
| 547 | OC[C@@H]1CN(Cc2ccco2)C[C@H]1c1nc(-c2ccncc2)no1 |
| 793 | Cn1c(=O)c(=O)n(C)c2cc(N3CCCC3)c(NC(=O)Cc3ccccc3Cl)cc21 |
| 865 | CCc1ccc(C2=C(C)C(N3CCCN(C(=O)NC4CCCC4)CC3)=NS2(=O)=O)cc1 |
| 850 | Cc1ccc(-c2nnc(Cc3nc(-c4ccncc4)no3)o2)cc1C |

Reference: the METLIN SMRT retention time set (Domingo-Almenara et al. 2019)
